pIC50: −log10 of the molar value. ≈ marks a conversion by molar mass, not a printed value. Entries after “also recorded” stand apart in the source; their conditions may differ.
Experiments:
[1] = biological target: T1, full-length human BCL6 binding to BCL6-binding domain of SMRT (residues 1292-1500) (Homo sapiens, UniProt P41182); test: NanoBRET cell assay in HEK293-WT cells; assay type: cell-based
T1 construct: Nano Luciferase fused at the N-terminus of full-length human BCL6; host or cells: HEK293-WT (ATCC CRL-1573)
Excerpt: Plasmids encoding Nano Luciferase fused at the N-terminus of full-length human BCL6 and encoding Halo tag fused at the C-terminus of the BCL6 binding domain (1292-1500) of human SMRT co-repressor were generated under contract by Promega Corporation. HEK293-WT cells were from ATCC (CRL-1573). Fugene HD transfection reagent (catalogue number E2311), HaloTag NanoBRET 618 ligand (catalogue number G980B) and NanoBRET Nano-Glo substrate (catalogue number N157B) were from Promega Ltd.
Assay day 1 (Transient Transfection): 8 x 10^6 HEK293-WT cells per T75 flask (one per compound plate), were transfected with mix comprising 10 µg BCL6 DNA, 10 µg domain SMRT DNA, 1 mL Opti-MEM and 60 µL FuGene (added last), incubating at room temperature for 10 mins prior to addition to flask. The flask was incubated for 20-24 hours at 37 °C and 5% CO2. Assay day 2 (Cell plating): Cells were detached, spun and re-suspended at 2 x 10^5 cells/mL, HaloTag NanoBRET 618 ligand at 1:1000 dilution was added and plated at 40 µL / well with test compounds prepared as above, a duplicate plate without HaloTag ligand was used as background control. The plates were incubated at 37 °C and 5% CO2 overnight (18-24 hours). Assay day 3 (Assay): 1:1000 NanoGlo substrate final was added to all wells, shaken for 30 seconds and luminescence then read on an Envision plate reader. […]

ULA cells [2] = test: Viability and cumulative cell number analysis, ULA; assay type: cell-based; details: 14 days; for cell viability: GSK137 0.1-10 μM, BI3802 0.1 and 1 μM
Experimental: Farage cells were cultured in RPMI1640 (1×) + 20% heat-inactivated fetal bovine serum (FBS), ULA in Iscove's modified Dulbecco's medium + 20% FBS, whereas Karpas422 and VAL were cultured in RPMI1640 + 20% heat-inactivated FBS, all with the addition of 1% Glutamax and 1% sodium pyruvate.
Farage, ULA, Karpas422, and VAL cells were seeded into T25 tissue culture flasks in a total volume of 7 mL per flask at densities of 5 x10^4, 7 x10^4, 5 x10^4, and 4 x10^4 cells/mL, respectively and incubated overnight at 37 °C and 5% CO2. Cells were then treated with a 3-point titration of GSK137 (0.1 µM, 1 µM, and 10 µM) throughout a 14-day time course. Treatments with multiple concentrations of BI3802 were also included for comparison (Farage and Karpas422 cells were treated with 0.01 µM, 0.1 µM, and 1 µM BI3802; ULA cells were treated with 0.1 µM and 1 µM BI3802; VAL cells were treated with 0.1 µM, 1 µM, and 10 µM BI3802). Viability (trypan blue exlcusion) and cumulative cell number were measured on a Vi-CELL XR 2.03 (Beckman Coulter, Brea, CA, USA) on day of seeding and on days 3, 6, 10, and 14.

ULA cells [3] = test: Cell cycle analysis, ULA; assay type: cell-based; details: GSK137 0.1-10 μM; for fraction of cells in G1: BI3802 1 μM, 2 or 6 days; for dead or dying cells: day 6, BI3802 1 μM
Experimental: (§1) Farage, ULA, KARPAS-422, and VAL cells were seeded into 6-well tissue culture dishes in a total volume of 6 mL at densities of 6.25 x10^3, 7.81 x10^3, 6.25 x10^3, and 1.56 x10^3 cells/mL, respectively and incubated overnight at 37 °C and 5% CO2. Cells were then treated with 0.1 µM, 1 µM, or 10 µM GSK137 or 1 µM BI3802 for 2 or 6 days at 37 °C and 5% CO2. Cell cycle analysis was performed using the Click-iT EdU Alexa Fluor 647 Flow Cytometry Assay Kit (Thermo Fisher Scientific, Waltham, MA, USA) following the manufacturer’s instructions, with volumes adjusted for a […] U-bottom plate, and with an approximately 1 hour treatment with 10 μM EdU. After EdU treatment, approximately 2x10^5 cells per well were transferred into a 96-well, non-tissue culture treated U-bottom plate and stained with 6.7µg/ml final FxCycle Violet Stain for 30 minutes incubation at room temperature. Cells were then analyzed on a flow cytometer (BD FACS Canto […] or LSR FortessaTM X-20 (Becton Dickinson, Franklin Lakes, NJ, USA)) with compensation each day using one cell line and data analyzed using FlowJo software (version 10.3). Percentages of cells in each phase of the cell cycle were then averaged across technical replicates.

[4] = tested on: Farage, Karpas422 and VAL cells; test: Cell cycle analysis, Farage, Karpas422, VAL; assay type: cell-based; details: 2 or 6 days
Experimental: as §1

[5] = tested on: BCL6 target genes in Farage cells; test: Semiquantitative real-time PCR of ten BCL6 target genes; assay type: cell-based; details: 72-h treatment
Experimental: Farage cells were plated at a density of 3000 cells/100 µl in 96-well plates, incubated overnight at 37 °C then treated with a 10-point, 1:3-fold serial dilution of compound at a top concentration of 20 µM for GSK137 or 10 µM BI3802. Cells were returned to the incubator for 3 days prior to harvesting for RNA isolation. RNA was isolated using the TurboCapture 96 Kit (Qiagen, Hilden, Germany; # 72251), cDNA generated using the High Capacity cDNA Reverse Transcription kit (ABI, Foster City, CA, USA; #4374966) both following the manufacturer’s instructions. qPCR was performed on a ViiA7 real-time PCR machine (Life Technologies, Carlsbad, CA, USA) using the Fast TaqMan ΔΔCt method. Quadruplicate readings were measured for each biological replicate sample. Individual TaqMan assays are listed (Table S4). Expression data were analyzed using the Comparative Ct^(2–ΔΔ^Ct) method (42) The Ct values of the treated samples are compared to vehicle treated samples and normalized to GAPDH. Changes are presented as an average RQ (termed “relative expression”). RQ values between 0 and 1 correspond to a downregulation of gene expression, RQ values greater than 1 correspond to upregulation.

BCL6 BTB-POZ domain = details: read-out: potency on BCL6 BTB-POZ domain; cited from earlier work
[6] = GSK in-house kinetic solubility assay (CAD); assay type: physicochemical; details: kinetic from dmso stock, charged aerosol detector

CNC(=O)COc1cc2cc(Nc3nc(N4C[C@H](C)C[C@H](C)C4)ncc3Cl)ccc2n(C)c1=O [BI3802, reference compound]
activity in cellular assay compared with reported potency ([1]; cellular): consistent with the previously reported potency | cumulative cell number (ULA cells [2]): most sensitive | cell viability (ULA cells [2]): only appreciably reduced viability in ULA at the highest concentration used | fraction of cells in G1 (ULA cells [3]): increased fraction of cells in G1 at day 2 | dead or dying cells (ULA cells [3]): ~40% | fraction of cells in G1 [4]: only minor increase in the fraction of cells in G1 | expression changes in a panel of 10 BCL6 target genes [5]: dose-dependent changes to six of the ten genes | pIC50 (BCL6 BTB-POZ domain): > 8.52

Cc1ncccc1[C@H]1C[C@@H](c2cccc3nc(N)ccc23)Nc2c(F)cnn21 [GSK137, 5-((5S,7R)-3-Fluoro-7-(2-methylpyridin-3-yl)-4,5,6,7-tetrahydropyrazolo[1,5-a]pyrimidin-5-yl)quinolin-2-amine]
IC50 ([1]; live cells, full-length human BCL6 / SMRT BBD, read-out: pIC50 Human NanoBret cell (converted)): 50.1 nM | solubility [6]: 128 µg/mL (≈ 342 µM) | cell viability (ULA cells [2]): no major change in cell viability; also recorded: only minimal reduction in viability | fraction of cells in G1 (ULA cells [3]): modest dose and time-dependent G1 cell cycle arrest | dead or dying cells (ULA cells [3]): no increase in dead or dying cells | fraction of cells in G1 [4]: only minor increase in the fraction of cells in G1 | expression changes in a panel of 10 BCL6 target genes [5]: clear increase only in SOCS2 with some increase in CD69

Source: article PMC8350397, “GSK137, a potent small-molecule BCL6 inhibitor with in vivo activity, suppresses antibody responses in mice” (The Journal of Biological Chemistry, 2021)
